# Results published in patent US20260015360A1 (MOMA Therapeutics, Inc., priority 2023, published 2026).
# Like-named read-outs stand apart in the source and are kept apart here.
# Columns and labels:
# DLD1 BRCA2 (−/−) cells = assay: DLD1 viability assay (CellTiter-Glo, 7 days), DLD1 BRCA2 (−/−); type: cell-based; conditions: read-out: Viability IC50 (μM) DLD1 BRCA2 null
# [1] = molecular target: T1, biotinylated Avi-POLΘ[2-894] (Homo sapiens, UniProt O75417); assay: ATPase assay (ADP-Glo): POLΘ-mediated ATP hydrolysis; conditions: read-out: Biochemical ATPase ADPGlo IC50
# T1 construct: 1 nM biotinylated Avi-POLΘ[2-894]
# T1 sequence (O75417 2-894 limits assumed): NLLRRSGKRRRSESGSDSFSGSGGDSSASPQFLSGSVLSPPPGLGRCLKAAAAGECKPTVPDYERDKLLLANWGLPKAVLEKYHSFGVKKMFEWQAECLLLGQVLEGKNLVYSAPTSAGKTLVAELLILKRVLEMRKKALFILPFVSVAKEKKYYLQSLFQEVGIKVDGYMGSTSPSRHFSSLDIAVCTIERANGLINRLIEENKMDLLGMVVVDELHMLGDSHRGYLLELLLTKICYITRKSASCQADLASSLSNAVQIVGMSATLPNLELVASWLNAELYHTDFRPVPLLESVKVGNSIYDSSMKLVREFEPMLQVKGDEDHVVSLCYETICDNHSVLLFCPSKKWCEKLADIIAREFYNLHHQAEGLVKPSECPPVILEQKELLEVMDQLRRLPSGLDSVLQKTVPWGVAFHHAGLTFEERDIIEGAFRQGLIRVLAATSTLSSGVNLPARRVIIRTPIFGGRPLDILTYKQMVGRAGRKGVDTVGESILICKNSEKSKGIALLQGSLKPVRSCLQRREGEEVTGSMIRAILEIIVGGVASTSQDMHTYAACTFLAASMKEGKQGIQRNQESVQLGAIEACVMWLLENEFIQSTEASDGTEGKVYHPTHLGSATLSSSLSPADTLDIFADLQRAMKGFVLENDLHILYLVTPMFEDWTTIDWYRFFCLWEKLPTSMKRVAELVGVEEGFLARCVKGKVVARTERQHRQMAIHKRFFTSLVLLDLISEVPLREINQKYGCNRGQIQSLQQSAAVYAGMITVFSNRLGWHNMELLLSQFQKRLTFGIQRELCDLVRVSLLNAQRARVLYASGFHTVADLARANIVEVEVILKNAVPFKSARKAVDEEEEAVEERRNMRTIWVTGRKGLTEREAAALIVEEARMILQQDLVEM
# DLD1 WT cells = assay: DLD1 viability assay (CellTiter-Glo, 7 days), DLD1 WT; type: cell-based
compound,measurement,setting,value
"COc1cnc(Cl)cc1-c1cc(C)ncc1C(=O)Nc1nc2ncc(N3CCO[C@H]4CCC[C@H]43)nc2s1 [Example 397, 2′-chloro-N-(6-((4aR,7aS)-hexahydrocyclopenta[b][1,4]oxazin-4(4aH)-yl)thiazolo[4,5-b]pyrazin-2-yl)-5′-methoxy-6-methyl-[4,4′-bipyridine]-3-carboxamide]",IC50,"DLD1 BRCA2 (−/−) cells; Homo sapiens, DLD-1, 168 h",0.001 to 0.1 µM
same,IC50,[1],1 to 15 nM
same,IC50,"DLD1 WT cells; Homo sapiens, DLD-1, 168 h",> 10 µM
COc1cnc(Cl)cc1-c1cc(C)ncc1C(=O)Nc1nn2cc(C(=O)N[C@H]3CC[C@H](O)C3)nc2s1 [Example 21],IC50,DLD1 BRCA2 (−/−) cells,0.5 to 2 µM
same,IC50,[1],1 to 15 nM
same,IC50,DLD1 WT cells,> 10 µM
"COc1cnc(Cl)cc1-c1cc(C)ncc1C(=O)Nc1nc2ncc(N3CCC(O)(C(F)F)CC3)nc2s1 [Example 504, 2′-chloro-N-(6-(4-(difluoromethyl)-4-hydroxypiperidin-1-yl)thiazolo[4,5-b]pyrazin-2-yl)-5′-methoxy-6-methyl-[4,4′-bipyridine]-3-carboxamide]",IC50,"DLD1 BRCA2 (−/−) cells; Homo sapiens, DLD-1, 168 h",0.001 to 0.1 µM
same,IC50,[1],1 to 15 nM
same,IC50,"DLD1 WT cells; Homo sapiens, DLD-1, 168 h",> 10 µM
"COc1cnc(Cl)cc1-c1cc(C)ncc1C(=O)Nc1nc2ncc([C@H]3CC4CC3C[C@@H]4C#N)nc2s1 (single isomer, unassigned) [Example 361B, 2′-chloro-N-(6-((2S or R,5S or R)-5-cyanobicyclo[2.2.1]heptan-2-yl)thiazolo[4,5-b]pyrazin-2-yl)-5′-methoxy-6-methyl-[4,4′-bipyridine]-3-carboxamide]",IC50,"DLD1 BRCA2 (−/−) cells; Homo sapiens, DLD-1, 168 h",0.001 to 0.1 µM
same,IC50,[1],1 to 15 nM
same,IC50,"DLD1 WT cells; Homo sapiens, DLD-1, 168 h",> 10 µM
"COc1cnc(Cl)cc1-c1cc(C)ncc1C(=O)Nc1nc2ncc([C@@H]3CC4CC3C[C@@H]4C#N)nc2s1 (single isomer, unassigned) [Example 361C, 2′-chloro-N-(6-((2R or S,5S or R)-5-cyanobicyclo[2.2.1]heptan-2-yl)thiazolo[4,5-b]pyrazin-2-yl)-5′-methoxy-6-methyl-[4,4′-bipyridine]-3-carboxamide]",IC50,"DLD1 BRCA2 (−/−) cells; Homo sapiens, DLD-1, 168 h",0.001 to 0.1 µM
same,IC50,[1],1 to 15 nM
same,IC50,"DLD1 WT cells; Homo sapiens, DLD-1, 168 h",> 10 µM
"COc1cnc(Cl)cc1-c1cc(C)ncc1C(=O)Nc1nc2ncc(C3CC4CC3CC4C#N)nc2s1 (single isomer, unassigned) [Example 361, 2′-chloro-N-(6-(5-cyanobicyclo[2.2.1]heptan-2-yl)thiazolo[4,5-b]pyrazin-2-yl)-5′-methoxy-6-methyl-[4,4′-bipyridine]-3-carboxamide]",IC50,"DLD1 BRCA2 (−/−) cells; Homo sapiens, DLD-1, 168 h",0.001 to 0.1 µM
same,IC50,[1],1 to 15 nM
same,IC50,"DLD1 WT cells; Homo sapiens, DLD-1, 168 h",> 10 µM
"COc1cnc(Cl)cc1-c1cc(C)ncc1C(=O)Nc1nc2ncc([C@H]3CC4CC3C[C@H]4C#N)nc2s1 (single isomer, unassigned) [Example 361D, 2′-chloro-N-(6-((2S or R,5R or S)-5-cyanobicyclo[2.2.1]heptan-2-yl)thiazolo[4,5-b]pyrazin-2-yl)-5′-methoxy-6-methyl-[4,4′-bipyridine]-3-carboxamide]",IC50,"DLD1 BRCA2 (−/−) cells; Homo sapiens, DLD-1, 168 h",0.001 to 0.1 µM
same,IC50,[1],1 to 15 nM
same,IC50,"DLD1 WT cells; Homo sapiens, DLD-1, 168 h",> 10 µM
"COc1cnc(Cl)cc1-c1cc(C)ncc1C(=O)Nc1nc2ncc([C@H]3CC[C@H](C#N)CC3)nc2s1 [Example 454, 2′-chloro-N-(6-((1r,4r)-4-cyanocyclohexyl)thiazolo[4,5-b]pyrazin-2-yl)-5′-methoxy-6-methyl-[4,4′-bipyridine]-3-carboxamide]",IC50,"DLD1 BRCA2 (−/−) cells; Homo sapiens, DLD-1, 168 h",0.001 to 0.1 µM
same,IC50,[1],1 to 15 nM
same,IC50,"DLD1 WT cells; Homo sapiens, DLD-1, 168 h",> 10 µM
"COc1ccccc1-c1cc(C)ncc1C(=O)Nc1nc2ccc(-c3ccccn3)cc2s1 [Example 121, 4-(2-methoxyphenyl)-6-methyl-N-(6-(pyridin-2-yl)benzo[d]thiazol-2-yl)nicotinamide]",IC50,"DLD1 BRCA2 (−/−) cells; Homo sapiens, DLD-1, 168 h",0.5 to 2 µM
same,IC50,[1],50 to 150 nM
same,IC50,"DLD1 WT cells; Homo sapiens, DLD-1, 168 h",0.001 to 2.5 µM
"COc1cnc(Cl)cc1-c1cc(C)ncc1C(=O)Nc1nc2ncc(N3CCC(C)(O)CC3)nc2s1 [Example 509, 2′-chloro-N-(6-(4-hydroxy-4-methylpiperidin-1-yl)thiazolo[4,5-b]pyrazin-2-yl)-5′-methoxy-6-methyl-[4,4′-bipyridine]-3-carboxamide]",IC50,"DLD1 BRCA2 (−/−) cells; Homo sapiens, DLD-1, 168 h",0.001 to 0.1 µM
same,IC50,[1],1 to 15 nM
same,IC50,"DLD1 WT cells; Homo sapiens, DLD-1, 168 h",> 10 µM
"COc1cnc(Cl)cc1-c1cc(C)ncc1C(=O)Nc1nn2cc(C(=O)N[C@H]3CCOC3)nc2s1 [Example 291, (S)-2-(2′-chloro-5′-methoxy-6-methyl-[4,4′-bipyridine]-3-carboxamido)-N-(tetrahydrofuran-3-yl)imidazo[2,1-b][1,3,4]thiadiazole-6-carboxamide]",IC50,"DLD1 BRCA2 (−/−) cells; Homo sapiens, DLD-1, 168 h",> 2 µM
same,IC50,[1],1 to 15 nM
same,IC50,"DLD1 WT cells; Homo sapiens, DLD-1, 168 h",> 10 µM
COc1ccccc1-c1cc(C)ncc1C(=O)Nc1nc2ncc(-c3ccnc(C)c3)cc2s1 [Example 87],IC50,"DLD1 BRCA2 (−/−) cells; Homo sapiens, DLD-1, 168 h",0.25 to 0.5 µM
same,IC50,[1],1 to 15 nM
same,IC50,"DLD1 WT cells; Homo sapiens, DLD-1, 168 h",> 10 µM
"COc1cnc(Cl)cc1-c1cc(C)ncc1C(=O)Nc1nc2ncc(N3CCC(O)(C(F)(F)F)CC3)nc2s1 [Example 511, 2′-chloro-N-(6-(4-hydroxy-4-(trifluoromethyl)piperidin-1-yl)thiazolo[4,5-b]pyrazin-2-yl)-5′-methoxy-6-methyl-[4,4′-bipyridine]-3-carboxamide]",IC50,"DLD1 BRCA2 (−/−) cells; Homo sapiens, DLD-1, 168 h",0.001 to 0.1 µM
same,IC50,[1],1 to 15 nM
same,IC50,"DLD1 WT cells; Homo sapiens, DLD-1, 168 h",2.5 to 5 µM
COc1cnc(Cl)cc1-c1cc(C)ncc1C(=O)Nc1nn2cc(C(=O)N[C@H]3CCCC[C@@H]3O)nc2s1 (racemic) [Example 281],IC50,"DLD1 BRCA2 (−/−) cells; Homo sapiens, DLD-1, 168 h",> 2 µM
same,IC50,[1],1 to 15 nM
same,IC50,"DLD1 WT cells; Homo sapiens, DLD-1, 168 h",> 10 µM
"COc1nc2c(cc1-c1cc(C)ncc1C(=O)Nc1nc3ncc(-c4ccncc4)nc3s1)OCCN2C [Example 507, 4-(6-methoxy-4-methyl-3,4-dihydro-2H-pyrido[3,2-b][1,4]oxazin-7-yl)-6-methyl-N-(6-(pyridin-4-yl)thiazolo[4,5-b]pyrazin-2-yl)nicotinamide]",IC50,"DLD1 BRCA2 (−/−) cells; Homo sapiens, DLD-1, 168 h",0.1 to 0.25 µM
same,IC50,[1],1 to 15 nM
same,IC50,"DLD1 WT cells; Homo sapiens, DLD-1, 168 h",> 10 µM
"COc1cnc(Cl)cc1-c1cc(C)ncc1C(=O)Nc1nc2ncc(C34CC(C#N)(C3)C4)nc2s1 (single isomer, unassigned) [Example 360, 2′-chloro-N-(6-(3-cyanobicyclo[1.1.1]pentan-1-yl)thiazolo[4,5-b]pyrazin-2-yl)-5′-methoxy-6-methyl-[4,4′-bipyridine]-3-carboxamide]",IC50,"DLD1 BRCA2 (−/−) cells; Homo sapiens, DLD-1, 168 h",0.001 to 0.1 µM
same,IC50,[1],1 to 15 nM
same,IC50,"DLD1 WT cells; Homo sapiens, DLD-1, 168 h",> 10 µM
COc1cnc(Cl)cc1-c1cc(C)ncc1C(=O)Nc1nn2cc(C(=O)N[C@@H]3CCCC[C@@H]3O)nc2s1 [Example 22],IC50,DLD1 BRCA2 (−/−) cells,> 2 µM
same,IC50,[1],1 to 15 nM
same,IC50,DLD1 WT cells,> 10 µM
"COc1cnc(Cl)cc1-c1cc(C)ncc1C(=O)Nc1nc2ncc(C34CCC(C#N)(CC3)CC4)nc2s1 (single isomer, unassigned) [Example 359, 2′-chloro-N-(6-(4-cyanobicyclo[2.2.2]octan-1-yl)thiazolo[4,5-b]pyrazin-2-yl)-5′-methoxy-6-methyl-[4,4′-bipyridine]-3-carboxamide]",IC50,"DLD1 BRCA2 (−/−) cells; Homo sapiens, DLD-1, 168 h",0.001 to 0.1 µM
same,IC50,[1],1 to 15 nM
same,IC50,"DLD1 WT cells; Homo sapiens, DLD-1, 168 h",> 10 µM
"COc1cnc(Cl)cc1-c1cc(C)ncc1C(=O)Nc1nc2ncc(N3CCC(OC)CC3)nc2s1 [Example 514, 2′-chloro-5′-methoxy-N-(6-(4-methoxypiperidin-1-yl)thiazolo[4,5-b]pyrazin-2-yl)-6-methyl-[4,4′-bipyridine]-3-carboxamide]",IC50,"DLD1 BRCA2 (−/−) cells; Homo sapiens, DLD-1, 168 h",0.001 to 0.1 µM
same,IC50,[1],1 to 15 nM
same,IC50,"DLD1 WT cells; Homo sapiens, DLD-1, 168 h",> 10 µM
"COc1cnc(Cl)cc1-c1cc(C)ncc1C(=O)Nc1nc2ncc([C@@H]3CC[C@@H](CO)C3)nc2s1 (single isomer, unassigned) [Example 498, 2′-chloro-N-(6-((1R or S,3R and S)-3-(hydroxymethyl)cyclopentyl)thiazolo[4,5-b]pyrazin-2-yl)-5′-methoxy-6-methyl-[4,4′-bipyridine]-3-carboxamide]",IC50,"DLD1 BRCA2 (−/−) cells; Homo sapiens, DLD-1, 168 h",0.001 to 0.1 µM
same,IC50,[1],1 to 15 nM
same,IC50,"DLD1 WT cells; Homo sapiens, DLD-1, 168 h",> 10 µM
"COc1cnc(Cl)cc1-c1cc(C)ncc1C(=O)Nc1nc2ncc(N3CCC(CO)CC3)nc2s1 [Example 506, 2′-chloro-N-(6-(4-(hydroxymethyl)piperidin-1-yl)thiazolo[4,5-b]pyrazin-2-yl)-5′-methoxy-6-methyl-[4,4′-bipyridine]-3-carboxamide]",IC50,"DLD1 BRCA2 (−/−) cells; Homo sapiens, DLD-1, 168 h",0.001 to 0.1 µM
same,IC50,[1],1 to 15 nM
same,IC50,"DLD1 WT cells; Homo sapiens, DLD-1, 168 h",> 10 µM
"COc1cnc(Cl)cc1-c1cc(C)ncc1C(=O)Nc1nc2ncc(C3CCOC3)nc2s1 (racemic) [Example 510, (Racemic)-2′-chloro-5′-methoxy-6-methyl-N-(6-(tetrahydrofuran-3-yl)thiazolo[4,5-b]pyrazin-2-yl)-[4,4′-bipyridine]-3-carboxamide]",IC50,"DLD1 BRCA2 (−/−) cells; Homo sapiens, DLD-1, 168 h",0.1 to 0.25 µM
same,IC50,[1],1 to 15 nM
same,IC50,"DLD1 WT cells; Homo sapiens, DLD-1, 168 h",> 10 µM
"COc1cnc(Cl)cc1-c1cc(C)ncc1C(=O)Nc1nc2ncc(C3CCOC3)cc2s1 (single isomer, unassigned) [Example 515, (R or S)-2′-chloro-5′-methoxy-6-methyl-N-(6-(tetrahydrofuran-3-yl)thiazolo[4,5-b]pyridin-2-yl)-[4,4′-bipyridine]-3-carboxamide]",IC50,"DLD1 BRCA2 (−/−) cells; Homo sapiens, DLD-1, 168 h",0.1 to 0.25 µM
same,IC50,[1],1 to 15 nM
same,IC50,"DLD1 WT cells; Homo sapiens, DLD-1, 168 h",> 10 µM
"COc1cnc(Cl)cc1-c1cc(C)ncc1C(=O)Nc1nc2ncc(N3CCC(OC(F)F)CC3)nc2s1 [Example 502, 2′-chloro-N-(6-(4-(difluoromethoxy)piperidin-1-yl)thiazolo[4,5-b]pyrazin-2-yl)-5′-methoxy-6-methyl-[4,4′-bipyridine]-3-carboxamide]",IC50,"DLD1 BRCA2 (−/−) cells; Homo sapiens, DLD-1, 168 h",0.001 to 0.1 µM
same,IC50,[1],1 to 15 nM
same,IC50,"DLD1 WT cells; Homo sapiens, DLD-1, 168 h",> 10 µM
"COc1cnc(Cl)cc1-c1cc(C)ncc1C(=O)Nc1nc2ncc([C@@H]3CC4CC3C[C@H]4C#N)nc2s1 (single isomer, unassigned) [Example 361A, 2′-chloro-N-(6-((2R or S,5R or S)-5-cyanobicyclo[2.2.1]heptan-2-yl)thiazolo[4,5-b]pyrazin-2-yl)-5′-methoxy-6-methyl-[4,4′-bipyridine]-3-carboxamide]",IC50,"DLD1 BRCA2 (−/−) cells; Homo sapiens, DLD-1, 168 h",0.001 to 0.1 µM
same,IC50,[1],1 to 15 nM
same,IC50,"DLD1 WT cells; Homo sapiens, DLD-1, 168 h",> 10 µM
